Laboratory results reported in article PMC7799364, “Dual inhibition of the terminal oxidases eradicates antibiotic‐tolerant Mycobacterium tuberculosis” (EMBO Molecular Medicine, 2020).

Experiments:
[1] = target: T1, cytochrome bcc (QcrB, cytochrome b subunit of cytochrome bcc:aa3) (Mycolicibacterium smegmatis, UniProt A0R052); experiment: NADH-based heme difference spectra of wild-type IMVs with […] Q203; Q203 also inhibits OCR of ΔcydAB IMVs; assay type: cell-based
T1 construct: gene MSMEG_4263; native cytochrome bcc-aa3 supercomplex in wild-type inverted-membrane vesicles; with cytochrome bcc-aa3 supercomplex

[2] = target: T2, cytochrome bd oxidase (Cyt-bd) (Mycolicibacterium smegmatis, UniProt A0QXA8); experiment: reduced minus oxidized heme difference spectra of NADH-energized ΔqcrCAB IMVs with […] compound; assay type: cell-based
T2 construct: gene MSMEG_3233; native enzyme in inverted-membrane vesicles of M. smegmatis ΔqcrCAB; with CydB
T2 sequence (A0QXA8 1-487): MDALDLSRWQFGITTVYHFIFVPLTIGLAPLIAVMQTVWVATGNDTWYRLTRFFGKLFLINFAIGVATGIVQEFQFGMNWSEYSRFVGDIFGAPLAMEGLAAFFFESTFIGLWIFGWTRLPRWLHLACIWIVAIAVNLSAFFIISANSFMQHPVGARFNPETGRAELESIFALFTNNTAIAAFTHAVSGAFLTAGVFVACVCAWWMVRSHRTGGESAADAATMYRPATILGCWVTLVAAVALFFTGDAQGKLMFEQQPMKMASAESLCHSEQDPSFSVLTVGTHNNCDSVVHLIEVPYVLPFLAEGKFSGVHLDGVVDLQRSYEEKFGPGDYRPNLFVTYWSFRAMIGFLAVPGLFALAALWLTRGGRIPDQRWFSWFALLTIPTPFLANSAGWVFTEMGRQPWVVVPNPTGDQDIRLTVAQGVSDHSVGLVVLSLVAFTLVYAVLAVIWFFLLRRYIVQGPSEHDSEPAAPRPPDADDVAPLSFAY
T2 sequence (A0QXA7 1-350 partner): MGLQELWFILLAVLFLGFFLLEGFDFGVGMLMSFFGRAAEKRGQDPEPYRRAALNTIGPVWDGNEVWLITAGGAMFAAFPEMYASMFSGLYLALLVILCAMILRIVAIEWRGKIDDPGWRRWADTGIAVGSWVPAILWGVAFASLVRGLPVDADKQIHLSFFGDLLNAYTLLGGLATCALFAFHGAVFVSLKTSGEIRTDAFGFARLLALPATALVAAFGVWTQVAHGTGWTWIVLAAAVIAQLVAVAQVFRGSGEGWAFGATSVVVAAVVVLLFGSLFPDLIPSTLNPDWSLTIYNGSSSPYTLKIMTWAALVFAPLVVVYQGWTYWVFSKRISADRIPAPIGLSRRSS

## CCc1nc2ccc(Cl)cn2c1C(=O)NCc1ccc(N2CCC(c3ccc(OC(F)(F)F)cc3)CC2)cc1 [Q203]
[1]
  NADH-based heme difference spectra of wild-type IMVs with 7.5 μM Q203; Q203 also: confirming drug binding and inhibition of the electron transfer within the cytochrome bcc complex

## FC(F)(F)c1ccc(Oc2ccc(Nc3ncnc4ccccc34)cc2)cc1 [ND-011992, N‐(4‐(4‐(trifluoromethyl)phenoxy)phenyl)quinazolin‐4‐amine]
[2]
  reduced minus oxidized heme difference spectra of NADH-energized ΔqcrCAB IMVs wi: the compound selectively binds and affects electron transfer in the mycobacterial Cyt‐bd
